{"source": "patent US11679093B2", "about": "“2-naphthimidamides, analogues thereof, and methods of treatment using same” (priority 2018, dated 2023)", "origin": "cited, not measured here", "test_system": "Influenza A virus (IAV)", "conditions": "fully differentiated mucociliated bronchiolar epithelium isolated from multiple human donors", "data": [{"compound": "N=C(N)Nc1ccc(C(=O)Oc2ccc3cc(C(=N)N)ccc3c2)cc1", "note": "[Nafamostat, 6-carbamimidoylnaphthalen-2-yl 4-guanidinobenzoate]", "values": [{"measurement": "antiviral activity", "value": "exhibit antiviral activity"}]}]}
